Patent US20030219456A1, “Method of utilization of zygosaccharomyces rouxii” (priority 2002, published 2003)

How the values were obtained:
Type in all cases: biochemical
[1] = DPPH free radical scavenging activity (preferred embodiment); conditions: standard compounds 100 mg/ml (0.1 g/ml) in ethyl alcohol; OD 517 nm, 30 min
Experimental: Free radical scavenging activity was then evaluated. Standard solutions (0.1 g/ml in ethyl alcohol) of BHA, BHT and vitamin E were freshly prepared. DPPH scavenging activity was determined as described below. The following observations and results were then recorded: [table] Optical density OD was measured at 517 nm at 0 min and 30 min after mixing. Percent free radical scavenging activity was calculated as follows: Percent activity=100×{Ac1−(At2−Ab1)}/Ac2, Where Ac1=OD of control at 0 min At2=OD of test at 30 min Ab1=OD of blank at 0 min Ac2=OD of control at 30 min

[2] = Peroxide value (POV) activity, modified Rodan's method; conditions: 0.1 g/ml in ethyl alcohol, 0.05 ml; 50° C., 3 days, dark; OD 500 nm
Experimental: Peroxide value (POV) activity was determined by a slightly modified Rodan's method (Terasawa, N., Yamazaki, N., and Fukui Y: Antioxidant activity of water extracts of herbs, Nippon Shokuhin Kagaku Kogaku Kaishi, 48, 2, 99-104, 2001.)
After mixing in a screw-capped test tube, the reaction mass was incubated inside a dark incubator at 50° C. for 3 days. The assay of liberated peroxide compounds was carried out as follows.
After 3 minutes, optical density was measured at 500 nm. Percent POV activity was calculated as follows:
Percent activity=100×(OD of sample or standard/OD of control)

[3] = DPPH free radical scavenging activity (Example 9); conditions: standard compounds 100 mg/ml in ethyl alcohol
Experimental: The said Sample was washed with ethyl acetate to get organic acids crystallized out. The crystals mainly consisted of succinic acid, which was identified by RI and H-NMR. The remaining magma, called bio-polyphenols (BPP) was tested for its anti-oxidant activity. The BPP was dissolved in ethyl alcohol to get concentrations of 100 mg/ml to 400 mg/ml. Standard compounds of BHA, BHT and vitamin E, which are recognized as strong anti-oxidants, and ZR drink described in Example 4 were also employed for comparison. Concentration of standard compounds in ethyl alcohol was 100 mg/ml each. The assay method to determine the scavenging activity of free radical DPPH was as described below.
Optical density OD was measured at 517 nm at 0 mm and 30 mm after mixing. Percent free radical scavenging activity was calculated as follows.
Percent activity=(Ac 1−(At2−Ab 1)}/Ac2×100,
Where Ac1=of control at 0 mm
Ac2=OD of control at 30 mm

Compound	Percent activity (free radical scavenging) [1] [%]	Percent activity (POV) = 100 x OD of sample or standard / OD of control [2] [%]	Percent activity (free radical scavenging) [3] [%]
COc1ccc(O)c(C(C)(C)C)c1 [BHA]	83.0	8.9	83.0
Cc1cc(C(C)(C)C)c(O)c(C(C)(C)C)c1 [BHT]	83.4	13.5	83.4
vitamin E	83.0	0	83.0
